Results published in ChEMBL document CHEMBL1201862, “PubChem BioAssay data set” (2004).
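A five-concentration, 48-hour dose response in 96-well plates underlies each endpoint, interpolated linearly between surrounding concentrations. GI50: concentration for 50% inhibition of growth.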 Calls of active or inactive are those of the source. No stated cut-off is given here; in the data, active = GI50 up to about 1.1 µM and inactive = higher.

Columns and labels:
Experiment in all cases: growth of human tumour cells (NCI), 48 h
SNB-75 = system: SNB-75
HCT-15 = system: HCT-15
A498 = system: A498
MDA-MB-435 = system: MDA-MB-435
UACC-257 = system: UACC-257
MDA-MB-231 = system: MDA-MB-231
OVCAR-5 = system: OVCAR-5
HOP-62 = system: HOP-62
SN12C = system: SN12C
M14 = system: M14
SF-268 = system: SF-268
PC-3 = system: PC-3
EKVX = system: EKVX
SW-620 = system: SW-620
OVCAR-4 = system: OVCAR-4
SF-539 = system: SF-539
OVCAR-3 = system: OVCAR-3
SR = system: SR
OVCAR-8 = system: OVCAR-8
Hs-578T = system: Hs-578T

| SMILES | GI50 (SNB-75) | GI50 (HCT-15) [µM] | GI50 (A498) | GI50 (MDA-MB-435) | GI50 (UACC-257) | GI50 (MDA-MB-231) | GI50 (OVCAR-5) | GI50 (HOP-62) | GI50 (SN12C) | GI50 (M14) | GI50 (SF-268) | GI50 (PC-3) | GI50 (EKVX) | GI50 (SW-620) | GI50 (OVCAR-4) | GI50 (SF-539) | GI50 (OVCAR-3) | GI50 (SR) | GI50 (OVCAR-8) | GI50 (Hs-578T) |
| --- | --- | --- | --- | --- | --- | --- | --- | --- | --- | --- | --- | --- | --- | --- | --- | --- | --- | --- | --- | --- |
| NCCC(=O)N[C@H](Cc1cc(O)c(O)c(SCC(NC(=O)CC[C@H](N)C(=O)O)C(=O)NCC(=O)O)c1)C(=O)O (stereo partly specified) | > 50 µM (inactive) | > 50 | > 50 µM (inactive) | > 50 µM (inactive) | > 50 µM (inactive) | > 50 µM (inactive) | > 50 µM (inactive) | > 50 µM (inactive) | > 50 µM (inactive) | > 50 µM (inactive) | > 50 µM (inactive) | > 50 µM (inactive) | > 50 µM (inactive) | > 50 µM (inactive) | > 50 µM (inactive) | – | – | – | – | – |
| CCN1C/C(=C\c2ccc(Cl)cc2)c2[nH]c(=O)c(C#N)c(-c3ccc(Cl)cc3)c2C1 | – | > 100 | > 100 µM (inactive) | > 100 µM (inactive) | > 100 µM (inactive) | > 100 µM (inactive) | > 100 µM (inactive) | > 100 µM (inactive) | > 100 µM (inactive) | > 100 µM (inactive) | > 100 µM (inactive) | > 100 µM (inactive) | > 100 µM (inactive) | > 100 µM (inactive) | > 100 µM (inactive) | > 100 µM (inactive) | > 100 µM (inactive) | 18.4 µM (inactive) | – | – |
| CC(CC[C@@H](C)C1CCC2[C@@H]3CC(O)C4CC(O)[C@@H](O)C[C@]4(C)C3CC[C@@]21C)C(C)(C)C (stereo partly specified) | > 100 µM (inactive) | > 100 | > 100 µM (inactive) | – | > 100 µM (inactive) | – | > 100 µM (inactive) | > 100 µM (inactive) | > 100 µM (inactive) | > 100 µM (inactive) | > 100 µM (inactive) | – | > 100 µM (inactive) | > 100 µM (inactive) | > 100 µM (inactive) | > 100 µM (inactive) | > 100 µM (inactive) | > 100 µM (inactive) | > 100 µM (inactive) | – |
| COc1ccc2[nH]c3c([N+](=O)[O-])ccc(NCCCN(C)C)c3/c(=N/CCCN(C)C)c2c1 | 1.84 µM (inactive) | 1.53 | – | 7.62 µM (inactive) | > 10 µM (inactive) | 1.5 µM (inactive) | – | 1.4 µM (inactive) | 1.35 µM (inactive) | > 10 µM (inactive) | 1.64 µM (inactive) | 1.06 µM (active) | 2.55 µM (inactive) | 1.63 µM (inactive) | 0.914 µM (active) | – | – | 0.28 µM (active) | 0.893 µM (active) | – |
| CC(=O)CC(=O)Nc1ccc(OS(N)(=O)=O)cc1 | > 100 µM (inactive) | > 100 | > 100 µM (inactive) | – | > 100 µM (inactive) | – | > 100 µM (inactive) | > 100 µM (inactive) | > 100 µM (inactive) | > 100 µM (inactive) | > 100 µM (inactive) | – | > 100 µM (inactive) | > 100 µM (inactive) | > 100 µM (inactive) | > 100 µM (inactive) | > 100 µM (inactive) | > 100 µM (inactive) | > 100 µM (inactive) | – |
| C=C1C[C@H]2C=Nc3cc(OCCCOc4cc5c(cc4OC)C(=O)N4CC(=C)C[C@H]4C=N5)c(OC)cc3C(=O)N2C1 [SJG-136] | < 0.01 µM (active) | 0.124 | 0.0146 µM (active) | – | 0.0146 µM (active) | < 0.0108 µM (active) | – | 0.0106 µM (active) | < 0.01 µM (active) | – | 0.000832 µM (active) | – | – | 0.0123 µM (active) | 0.0306 µM (active) | < 0.01 µM (active) | 0.0172 µM (active) | < 0.01 µM (active) | 0.0119 µM (active) | 0.0426 µM (active) |
| COC(=O)C1=CC2C=CC(C1C(=O)OC)C1C(C(=O)OC)=C(C(=O)OC)C(C(=O)OC)=C(C(=O)OC)C21OC (stereo unspecified) | > 100 µM (inactive) | > 100 | > 100 µM (inactive) | – | > 100 µM (inactive) | – | > 100 µM (inactive) | > 100 µM (inactive) | > 100 µM (inactive) | > 100 µM (inactive) | > 100 µM (inactive) | – | > 100 µM (inactive) | > 100 µM (inactive) | > 100 µM (inactive) | > 100 µM (inactive) | > 100 µM (inactive) | > 100 µM (inactive) | > 100 µM (inactive) | – |
| NNC(=O)Cn1c2ccc(Br)cc2c2nc3ccccc3nc21 | > 100 µM (inactive) | – | 47.1 µM (inactive) | > 100 µM (inactive) | 76.4 µM (inactive) | > 100 µM (inactive) | 53.7 µM (inactive) | 19.8 µM (inactive) | > 100 µM (inactive) | > 100 µM (inactive) | > 100 µM (inactive) | > 100 µM (inactive) | 9.59 µM (inactive) | > 100 µM (inactive) | – | > 100 µM (inactive) | 23.2 µM (inactive) | > 100 µM (inactive) | 54.3 µM (inactive) | – |
| C[C@]12CC[C@H](O)CC1=CC[C@@H]1C2CC[C@]2(C)C(=O)NC(=O)CC12 (stereo partly specified) | > 100 µM (inactive) | > 100 | > 100 µM (inactive) | – | > 100 µM (inactive) | – | > 100 µM (inactive) | > 100 µM (inactive) | 69 µM (inactive) | > 100 µM (inactive) | 65.9 µM (inactive) | – | > 100 µM (inactive) | 47.8 µM (inactive) | > 100 µM (inactive) | > 100 µM (inactive) | > 100 µM (inactive) | 37.2 µM (inactive) | 45.6 µM (inactive) | – |
| N#Cc1c(-c2ccccc2)cc(Nc2cccc(C(F)(F)F)c2)n2c1nc1ccccc12 | 1.82 µM (inactive) | 1.38 | 1.64 µM (inactive) | 2.01 µM (inactive) | 0.733 µM (active) | 1.71 µM (inactive) | 2.68 µM (inactive) | 1.77 µM (inactive) | 0.519 µM (active) | – | 1.29 µM (inactive) | – | 1.2 µM (inactive) | 3.05 µM (inactive) | 0.912 µM (active) | 2.22 µM (inactive) | 0.561 µM (active) | – | 1.01 µM (active) | – |
| CCCCC(=O)Nc1ccc2cc(C(=O)OC)c(ON3C(=O)c4ccccc4C3=O)nc2n1 | 28.6 µM (inactive) | 40.6 | 27.4 µM (inactive) | 37.6 µM (inactive) | 23.5 µM (inactive) | 38.9 µM (inactive) | 23 µM (inactive) | 18.6 µM (inactive) | 28.9 µM (inactive) | 17.9 µM (inactive) | 29.1 µM (inactive) | 28.4 µM (inactive) | 33.1 µM (inactive) | 46 µM (inactive) | 28.1 µM (inactive) | 18 µM (inactive) | 37.1 µM (inactive) | 36.4 µM (inactive) | 25 µM (inactive) | – |
| C/C(=N\Nc1nc2ccccc2[nH]1)c1cc2ccccc2cn1 | 0.317 µM (active) | < 0.0106 | 0.0993 µM (active) | 0.182 µM (active) | 0.0243 µM (active) | 0.0261 µM (active) | 0.288 µM (active) | 1.11 µM (active) | < 0.01 µM (active) | < 0.01 µM (active) | 0.0399 µM (active) | – | < 0.0183 µM (active) | < 0.012 µM (active) | 0.0443 µM (active) | 0.1 µM (active) | – | 0.0281 µM (active) | < 0.018 µM (active) | 0.0612 µM (active) |
